The text below walks through data of patent publication US9376425B2, “Heterocyclic compounds as MDM2 inhibitors for the treatment of cancer” (AMGEN INC., priority 2011, dated 2016).

pIC50: −log10 of the molar value.

The target in this assay is T1, human MDM2 (GST-hMDM2 1-188), interaction with biotinylated-p53 (1-83) (Homo sapiens, UniProt Q00987).
T1 construct: Amino acid residues 1-188 of human MDM2 were expressed; made in house; host or cells: Escherichia coli
T1 sequence (Q00987 1-188): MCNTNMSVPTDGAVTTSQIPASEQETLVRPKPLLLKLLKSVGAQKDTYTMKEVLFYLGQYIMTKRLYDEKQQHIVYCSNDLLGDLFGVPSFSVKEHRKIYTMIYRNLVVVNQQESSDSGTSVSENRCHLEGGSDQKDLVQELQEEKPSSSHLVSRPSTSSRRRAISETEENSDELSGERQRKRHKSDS
As to the kind of experiment: improved HTRF assay (HTRF2 assay), inhibition of HDM2-p53 interaction. The class given is binding. The conditions noted are these: 0.2 nM GST-hMDM2, 0.5 nM biotinylated-p53, 100 mM KF. How it is done:
Residues 1-83 of human p53 were expressed as an amino-terminal AviTag™-TrxA-6xHis fusion protein (biotinylated p53) in E. coli. Each protein was purified from cell paste by affinity chromatography.
Specifically, 10 uL of GST-hMDM2 was incubated with 10 ul of diluted compound (various concentrations, serially diluted) in 10% DMSO for 20 minutes at room temperature. 20 uL of biotinylated-p53 was added to the GST-hMDM2+ compound mixture, and then incubated at room temperature for 60 min. 10 uL of detection buffer consisting of SA-XLent, anti-GST cryptate antibody and KF was added to GST-hMDM2, biotinylated-p53 and compound reaction and left at room temperature to reach equilibrium for >4 hrs. The final concentration of DMSO in the reaction was 2%. Time-resolved fluorescence readings were measured on a microplate multilabel reader. Percentage of inhibition was calculated relative to nutlin-3.
For orientation: Time-resolved FRET reads energy transfer from a long-lived donor to a nearby acceptor.
Compound `CC[C@@H](CN(c1ccccc1F)S(=O)(=O)C1(C)CC1)N1C(=O)[C@@H](CC(=O)O)O[C@H](c2cccc(Cl)c2)[C@H]1c1ccc(Cl)cc1` (single isomer, unassigned) [Example 175, 2-((2R,5R,6R)-6-(3-chlorophenyl)-5-(4-chlorophenyl)-4-((S)-1-(N-(2-fluorophenyl)-1-methylcyclopropanesulfonamido)butan-2-yl)-3-oxomorpholin-2-yl)acetic acid or 2-((2S,5R,6R)-6-(3-chlorophenyl)-5-(4-chlorophenyl)-4-((S)-1-(N-(2-fluorophenyl)-1-methylcyclopropanesulfonamido)butan-2-yl)-3-oxomorpholin-2-yl)acetic acid] showed a negative-log IC50 (pIC50) of more than 9.00.
The result for `CC[C@@H](CN(c1ncccc1F)S(=O)(=O)C1CC1)N1C(=O)[C@@H](CC(=O)O)O[C@H](c2cccc(Cl)c2)[C@H]1c1ccc(Cl)cc1` (single isomer, unassigned) [Example 176, 2-((2R,5R,6R)-6-(3-chlorophenyl)-5-(4-chlorophenyl)-4-((S)-1-(N-(3-fluoropyridin-2-yl)cyclopropanesulfonamido)butan-2-yl)-3-oxomorpholin-2-yl)acetic acid or 2-((2S,5R,6R)-6-(3-chlorophenyl)-5-(4-chlorophenyl)-4-((S)-1-(N-(3-fluoropyridin-2-yl)cyclopropanesulfonamido)butan-2-yl)-3-oxomorpholin-2-yl)acetic acid] reads more than 9.00; that for `CC[C@@H](CN(c1ncccc1F)S(=O)(=O)C1CC1)N1C(=O)[C@@H](CC(=O)O)O[C@H](c2cccc(Cl)c2)[C@H]1c1ccc(Cl)cc1` (single isomer, unassigned) [Example 177, 2-((2R,5R,6R)-6-(3-chlorophenyl)-5-(4-chlorophenyl)-4-((S)-1-(N-(3-fluoropyridin-2-yl)cyclopropanesulfonamido)butan-2-yl)-3-oxomorpholin-2-yl)acetic acid or 2-((2S,5R,6R)-6-(3-chlorophenyl)-5-(4-chlorophenyl)-4-((S)-1-(N-(3-fluoropyridin-2-yl)cyclopropanesulfonamido)butan-2-yl)-3-oxomorpholin-2-yl)acetic acid], more than 9.00; that for `C=CC[C@@H]1O[C@H](c2cccc(Cl)c2)[C@@H](c2ccc(Cl)cc2)N([C@@H](CC)CN(c2ccccn2)S(=O)(=O)C2CC2)C1=O` (single isomer, unassigned) [Example 178, N-((S)-2-((2S,5R,6R)-2-allyl-6-(3-chlorophenyl)-5-(4-chlorophenyl)-3-oxomorpholino)butyl)-N-(pyridin-2-yl)cyclopropanesulfonamide or N-((S)-2-((2R,5R,6R)-2-allyl-6-(3-chlorophenyl)-5-(4-chlorophenyl)-3-oxomorpholino)butyl)-N-(pyridin-2-yl)cyclopropanesulfonamide], 6.74.
Compound `C=CC[C@@H]1O[C@H](c2cccc(Cl)c2)[C@@H](c2ccc(Cl)cc2)N([C@@H](CC)CN(c2ccccn2)S(=O)(=O)C2CC2)C1=O` (single isomer, unassigned) [Example 179, N-((S)-2-((2S,5R,6R)-2-allyl-6-(3-chlorophenyl)-5-(4-chlorophenyl)-3-oxomorpholino)butyl)-N-(pyridin-2-yl)cyclopropanesulfonamide or N-((S)-2-((2R,5R,6R)-2-allyl-6-(3-chlorophenyl)-5-(4-chlorophenyl)-3-oxomorpholino)butyl)-N-(pyridin-2-yl)cyclopropanesulfonamide] showed a pIC50 of 6.85.
The result for `CC[C@@H](CN(c1ccccn1)S(=O)(=O)C1CC1)N1C(=O)[C@H](CC(=O)O)O[C@H](c2cccc(Cl)c2)[C@H]1c1ccc(Cl)cc1` (single isomer, unassigned) [Example 180, 2-((2S,5R,6R)-6-(3-chlorophenyl)-5-(4-chlorophenyl)-3-oxo-4-((S)-1-(N-(pyridin-2-yl)cyclopropanesulfonamido)butan-2-yl)morpholin-2-yl)acetic acid or 2-((2R,5R,6R)-6-(3-chlorophenyl)-5-(4-chlorophenyl)-3-oxo-4-((S)-1-(N-(pyridin-2-yl)cyclopropanesulfonamido)butan-2-yl)morpholin-2-yl)acetic acid] reads more than 9.00.

As a reminder, the pIC50 is the IC50 on a negative log10 scale, so that one unit is a factor of ten.
